# Laboratory results published in patent publication US20030027745A1, “Diagnostic and prognostic method for evaluating ocular inflammation and oxidative stress and the treatment of the same” (priority 2001, published 2003).
# Assays:
# drusen = test: Number of drusen in an ARMD patient following NAC treatment; type: in vivo; settings: FIG. 2
# [1] = tested on: reduced blood glutathione (GSH); test: Blood glutathione (GSH) levels in an ARMD patient before and after NAC treatment; type: in vivo; settings: ARMD patient taking NAC compared to the same patient before taking NAC, FIG. 1
# Text: FIG. 1 is a chart showing the decreased reduced blood glutathione (GSH) levels in an Age-Related Macular Degeneration patient, prior to and following treatment of the patient with N-acetylcysteine (NAC).
# It is known that GSH levels decrease in cells that are exposed to oxidative stress and inflammation. Decreases in GSH lead to even further increased oxidative stresses. […] Since it shown that patients with ARMD, as opposed to the control subjects, have decreased levels of GSH and that the levels of GSH increased following NAC treatment, alterations in GSH, GSSG and other factors when analyzed alone or in combination, can be used to help identify ARMD and other patients who have increased ocular oxidative stress and/or inflammation. For example, these responses may occur in the eye of ARMD or other patients as the disease progresses from its dry to wet forms or from less serious to more serious wet forms. Consequently, measurements of these factors could provide a way of diagnosing and following the progression of ARMD or other conditions in patients, especially when the measurements are made sequentially and compared repeatedly in the same individual.
# A second aspect of the invention is that the effectiveness of treatments that alter oxidative stress can be assessed by the measurement, especially sequential measurement, of blood factors. […]
structure (smiles),measurement,setting,value
"CC(=O)N[C@@H](CS)C(=O)O [NAC, N-acetylcysteine]","drusen (number of drusens, a retinal abnormality)",drusen,decreased
same,GSH levels,[1],increased
